Assays:
Assay type in all cases: cell-based
[1] = system: IGF-1-induced EMT in NBT-II cells; test: EMT spot migration assay, IGF-1-induced; settings: IGF-1-induced EMT (150 ng/ml IGF-1), CDR dose response from 6.67 μM, read-out: Cell Dispersion IC 50, IGF-1
Protocol: (§1) NBT-II cells were stably transfected with mcherry-fluorescent H2B and maintained in DMEM supplemented with 10% fetal bovine serum (FBS, Thermo Scientific), 1 μg/ml puromycin (Sigma) and 100 units/ml penicillin-streptomycin (1× pen-strep, Invitrogen). Cells were grown to 80% confluency in tissue culture flasks prior to plating. Cells were trypsinized and concentrated to a density of 5×10^6 cell/ml in CO2-independent medium (Invitrogen) supplemented with 10% FBS. The cell suspension was then evenly dispersed into the wells of two columns of a 96-well V-bottom plate. Using a robotic liquid-handling station (Bravo, Agilent Technologies), 0.5 μl of cell suspension was transferred from the two columns of the cell suspension-loaded plate and deposited into the center of the wells of two columns of a 96-well clear bottom, black assay plate (Corning). This process was repeated six times so that all 96 wells of the assay plate were deposited with a cell suspension spot. The plate was then sealed to minimize evaporation of the cell suspension spots and transferred to a 37° C., 5% CO2 incubator to allow for cells to attach to the culture surface. After 1 hour, the plate was gently washed with medium once to remove unattached cells, refreshed with 100 μl of assay medium (DMEM supplemented with 10% FBS and 1× pen-strep), and then further incubated to allow for cell-cell contacts to establish in the cell colonies.
(§2) Four tiled, non-overlapping images were acquired around the center of each well, and were then stitched together during image analysis to generate a montage covering an area of 3.2 mm×3.2 mm. These images (T1) represent the initial state of the cell colonies before EMT induction.
(§3) After the T1 images were acquired, 1 μl of test compounds were transferred from compound stock plates and added to the assay plates. Appropriate negative controls (1 μl DMSO) and positive controls (1 μl 1.0 mM compound in DMSO) were also added into columns 1 and 12 of each assay plate, respectively. […] The cultures were then further incubated overnight.
(§4) The next day, 50 μl of growth factor-containing medium was added to each well of the assay-plates. For each of the growth factor-induced EMT spot migration assays, the final growth factor concentrations in each well is optimized to be 20 ng/ml EGF (Sigma), 4 ng/ml HGF (Calbiochem) or 150 ng/ml IGF-1 (R&D Systems), respectively. The cultures were then incubated for another 24 hours, to allow for EMT and sufficient cell motility/dispersion to occur in the cell colonies.
(§5) Finally, the cell colonies were imaged again using the microplate imager, as described above. These images (T2) represent the final state of the cell colonies after compound treatment and EMT induction. The acquired T1 and T2 image sets for each assay plate were then sent for image analysis.
(§6) The acquisition of each well was obtained by four adjacent field images with no interstice in between. Each field image was loaded and nuclei were initially segmented independently of other fields to prevent artifact at the field border. Nuclei segmentation was achieved by combining a wavelet transform which is robust to noise and unhomogeneous background, and a watershed algorithm based on intensities to split nuclei clusters. Mask of nuclei segmentation of the different fields were then stitched together in order to obtain a large segmentation of the whole well. Cell bodies were estimated by applying a morphological dilation on the nucleus segmentation using a disk of 30 pixels (48 μm) in diameter. In cells that are contiguous, such as in a cell colony, nuclei segmentation dilation will result in the formation of continuous region areas with surrounding cells which can then be identified as colonies.
(§7) Total cell number and spreading coefficient values for each well were then exported into an Excel sheet.

E-cadherin [2] = test: Western blot of EMT marker E-cadherin in growth factor-treated NBT-II cells; settings: NBT-II cells, 0.5, 2 and 8 μM compound overnight, then EGF, HGF or IGF-1 for 24 h (FIG. 7)
Protocol: NBT-II cells were treated with compounds at 0.5, 2 and 8 μM overnight and incubated with a growth factor for 24 h. Cells were lysed with protease/phosphatase inhibitor-containing RIPA buffer. Proteins are separated in 8% polyacrylamide gels and transferred to PDVF membranes. Membranes were blocked in 5% BSA and incubated at 4° C. overnight with MMP-13 (Millipore), E-cadherin (BD) and α-tubulin (Sigma) primary antibodies. Membranes were then developed with HRP-conjugated secondary antibody (Amersham) and ECL substrate (Millipore).
The possibilities that ALK5, MEK, PI3K and SRC targeting compounds could modulate the expression of EMT markers, such as E-cadherin and matrix metalloproteinase-13 (MMP-13) under EMT-activated conditions were also investigated (FIG. 7). With the exception of P13K inhibitor GDC-0941, the compounds in general abrogated MMP-13 expression in growth factor-treated samples, PI3K inhibition has been previously shown to augment MMP-13 expression. […] These findings are consistent with previous reports showing that ALK5, MEK and SRC play a role in cell motility and tumor progression, while PI3K predominately regulates cell proliferation.

[3] = system: HGF-induced EMT in NBT-II cells; test: EMT spot migration assay, HGF-induced; settings: HGF-induced EMT (4 ng/ml HGF), CDR dose response from 6.67 μM, read-out: Cell Dispersion IC 50, HGF
Protocol: as §1, §2, §3, §4, §5, §6, §7

plakoglobin = test: Western blot of plakoglobin in cell lines; settings: 2 μM for 48 hours vs 0.02% DMSO
Protocol: FIG. 10 is a western blot image showing the increase in epithelial marker plakoglobin expression induced by AZD0530 in cell lines. Cell lines were treated with 2 μM AZD0530 or 0.02% DMSO control for 48 hours. Thus, FIG. 10 provides an example of possible downstream analysis that may be conducted subsequent to the detection of possible inhibitor by the method as described herein. In this figure, western blot analysis was used to validate the possible inhibitor detected by the method as described herein.
(§8) For western blot experiments with other cell lines, cells are treated either with AZD0530, such as 2 μM AZD0530 or DMSO, such as 0.02% DMSO control for 48 h. The samples are then processed using the same procedure as described above. The samples were probed with MMP-13, E-cadherin, plakoglobin (Cell Signaling), α-tubulin, and β-actin (Cell Signaling) antibodies.

E-cadherin [4] = test: Western blot of E-cadherin in ovarian carcinoma cell lines; settings: panel of ovarian carcinoma cell lines, 2 μM for 48 hours vs 0.02% DMSO
Protocol: (§9) FIG. 11 is a western blot image showing the increase in epithelial marker E-cadherin expression and the decrease of mesenchymal marker MMP-13 expression in panel of ovarian carcinoma cell lines treated with AZD0530. Cell lines were treated with 2 μM AZD0530 or 0.02% DMSO control for 48 hours. Thus, FIG. 11 provides an example of possible downstream analysis that may be conducted subsequent to the detection of possible inhibitor by the method as described herein. In this figure, western blot analysis was used to validate the possible inhibitor detected by the method as described herein.
as §8

MMP-13 = test: Western blot of MMP-13 in ovarian carcinoma cell lines; settings: panel of ovarian carcinoma cell lines, 2 μM for 48 hours vs 0.02% DMSO
Protocol: as §9, §8

For `CN1CCN(CCOc2cc(OC3CCOCC3)c3c(Nc4c(Cl)ccc5c4OCO5)ncnc3c2)CC1` [AZD0530], the IC50 [1] was 240 nM, the E-cadherin expression (E-cadherin [2]) was “augment E-cadherin expression” and the IC50 [3] was 510 nM. For the same molecule, the “Epithelial marker plakoglobin expression” value (plakoglobin) was “increase”, the “Epithelial marker E-cadherin expression” value (E-cadherin [4]) was “increase” and the “Mesenchymal marker MMP-13 expression” value (MMP-13) was “decrease”.

— US20150004620A1, “METHOD OR DEVICE FOR IDENTIFYING INHIBITOR OF EPITHELIAL MESENCHYMAL TRANSITION” (Agency for Science, Technology and Research, priority 2011, published 2015)
